ChEMBL document CHEMBL5500390, “Overcoming Secondary Mutations of Type II Kinase Inhibitors” (J Med Chem, 2024)

Experiments:
[1] = Inhibition of cell growth in mouse 32D cells transfected with FLT3 ITD mutant incubated for 2 days; assay type: functional; conditions: 48 h, time 2 day
[2] = Inhibition of cell growth in mouse 32D cells transfected with FLT3 ITD F691L mutant incubated for 2 days; assay type: functional; conditions: 48 h, time 2 day

`CCCNc1nc(Nc2ccc(C#N)cc2)ncc1C#CCCCNC(=O)[C@H](C)N(C)C(=O)/C=C/CN(C)C` [FF-10101] showed a GI50 [1] of 1.9 nM and a GI50 [2] of 10 nM.
